Laboratory results from patent US9833497B2, “Human originated EGF domain proteins and use of the same” (CHENGDU SOURCEBIO LIMITED-LIABILITY COMPANY, priority 2013, dated 2017).

Legend:
Type in all cases: cell-based
Moraxella catarrhalis = test: MIC against Gram-negative bacteria: Moraxella catarrhalis; conditions: for MIC: M. catarrhalis, 10 h cultivation at 37° C.
Outline: (§1)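 The recombinant human-originated EGF domain proteins were serially diluted two-fold against bacteria at 5×10^5 CFU/mL in LB medium. After shaken incubation at 37° C, the lowest concentration with no bacterial growth was recorded as the MIC.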

E. coli BL21 = test: MIC against Gram-negative bacteria: E. coli BL21; conditions: for MIC: 10 h cultivation at 37° C.
Outline: as §1

Aeromonas hydrophila = test: MIC against Gram-negative bacteria: Aeromonas hydrophila; conditions: for MIC: A. hydrophila, 10 h cultivation at 37° C.
Outline: as §1

Citrobacter diversus = test: MIC against Gram-negative bacteria: Citrobacter diversus; conditions: for MIC: C. diversus, 10 h cultivation at 37° C.
Outline: as §1

Klebsiella pneumonia = test: MIC against Gram-negative bacteria: Klebsiella pneumonia; conditions: for MIC: K. pneumonia, 10 h cultivation at 37° C.
Outline: as §1

Pseudomonas aeruginosa = test: MIC against Gram-negative bacteria: Pseudomonas aeruginosa; conditions: for MIC: P. aeruginosa, 10 h cultivation at 37° C.
Outline: as §1

E. coli DH5α = test: Antibacterial activity: MIC and growth curve against E. coli DH5α in 96-well plate; conditions: minimal inhibitory concentration against E. coli DH5α; 96-well plate, 5×10^5 CFU/mL, 37° C., judged after 8 h
Outline: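 Log-phase bacteria (OD600 ~0.5) resuspended in LB at 5×10^5 CFU/mL, exposed to recombinant protein at 50, 25, 12.5 μg/mL final in triplicate, 37 °C shaking at 175 rpm. OD600 read every 30 min; MIC is lowest concentration showing no growth.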

Serratia marcescens = test: MIC against Gram-negative bacteria: Serratia marcescens; conditions: for MIC: S. marcescens, 10 h cultivation at 37° C.
Outline: as §1

Proteus mirabilis = test: MIC against Gram-negative bacteria: Proteus mirabilis; conditions: for MIC: P. mirabilis, 10 h cultivation at 37° C.
Outline: as §1

Proteus vulgaris = test: MIC against Gram-negative bacteria: Proteus vulgaris; conditions: for MIC: P. vulgaris, 10 h cultivation at 37° C.
Outline: as §1

Enterobacter cloacae = test: MIC against Gram-negative bacteria: Enterobacter cloacae; conditions: for MIC: E. cloacae, 10 h cultivation at 37° C.
Outline: as §1

[1] = 96-well plate, 5×10^5 CFU/mL, 37° C., 10 h

## PRT710 (DQDECAVYGTCSQTCRNTHGSYTCSCVEGYLMQPDNRSCK; listed as Homo sapiens)
Moraxella catarrhalis; [1]
  MIC M. catarrhalis: 25 µg/mL
E. coli BL21; [1]
  MIC E. coli BL21: 12.5 µg/mL
Aeromonas hydrophila; [1]
  MIC A. hydrophila: 12.5 µg/mL
Citrobacter diversus; [1]
  MIC C. diversus: 50 µg/mL
Klebsiella pneumonia; [1]
  MIC K. pneumonia: 12.5 µg/mL
Pseudomonas aeruginosa; [1]
  MIC P. aeruginosa: 50 µg/mL
E. coli DH5α
  MIC: 25 µg/mL
Serratia marcescens; [1]
  MIC S. marcescens: 50 µg/mL
Proteus mirabilis; [1]
  MIC P. mirabilis: 12.5 µg/mL
Proteus vulgaris; [1]
  MIC P. vulgaris: 25 µg/mL
Enterobacter cloacae; [1]
  MIC E. cloacae: 50 µg/mL

## PRT458 (ECSRLCRNGYCTPTGKCCCSPGWEGDFC; listed as Homo sapiens)
Moraxella catarrhalis; [1]
  MIC against M. catarrhalis: 25 µg/mL
E. coli BL21; [1]
  MIC against E. coli BL21: 12.5 µg/mL
Aeromonas hydrophila; [1]
  MIC against A. hydrophila: 25 µg/mL
Citrobacter diversus; [1]
  MIC against C. diversus: 12.5 µg/mL
Klebsiella pneumonia; [1]
  MIC against K. pneumonia: 12.5 µg/mL
Pseudomonas aeruginosa; [1]
  MIC against P. aeruginosa: 12.5 µg/mL
E. coli DH5α
  MIC: 50 µg/mL
Serratia marcescens; [1]
  MIC against S. marcescens: 12.5 µg/mL
Proteus mirabilis; [1]
  MIC against P. mirabilis: 12.5 µg/mL
Proteus vulgaris; [1]
  MIC against P. vulgaris: 25 µg/mL
Enterobacter cloacae; [1]
  MIC against E. cloacae: 12.5 µg/mL

## PRT442 (DINECEQVPKPCAHQCSNTPGSFKCICPPGQHLLGDGKSCA; listed as Homo sapiens)
Moraxella catarrhalis; 5×10^5 CFU/mL
  MIC: 12.5 µg/mL
E. coli BL21; E. coli BL21, 5×10^5 CFU/mL
  MIC: 50 µg/mL
Aeromonas hydrophila; 5×10^5 CFU/mL
  MIC: 50 µg/mL
Citrobacter diversus; 5×10^5 CFU/mL
  MIC: 25 µg/mL
Klebsiella pneumonia; 5×10^5 CFU/mL
  MIC: 12.5 µg/mL
Pseudomonas aeruginosa; 5×10^5 CFU/mL
  MIC: 25 µg/mL
E. coli DH5α
  MIC: 12.5 µg/mL
Serratia marcescens; 5×10^5 CFU/mL
  MIC: 25 µg/mL
Proteus mirabilis; 5×10^5 CFU/mL
  MIC: 12.5 µg/mL
Proteus vulgaris; 5×10^5 CFU/mL
  MIC: 12.5 µg/mL
Enterobacter cloacae; 5×10^5 CFU/mL
  MIC: 25 µg/mL

## PRT1012 (APKGCGPPSPCLYNGSCSETTGLGGPGFRCSCPHSSPGPRCQ; listed as Homo sapiens)
Moraxella catarrhalis
  MIC: 12.5 µg/mL
E. coli BL21; E. coli BL21
  MIC: 50 µg/mL
Aeromonas hydrophila
  MIC: 12.5 µg/mL
Citrobacter diversus
  MIC: 50 µg/mL
Klebsiella pneumonia
  MIC: 12.5 µg/mL
Pseudomonas aeruginosa
  MIC: 12.5 µg/mL
E. coli DH5α
  MIC: 12.5 µg/mL
Serratia marcescens
  MIC: 12.5 µg/mL
Proteus mirabilis
  MIC: 12.5 µg/mL
Proteus vulgaris
  MIC: 25 µg/mL
Enterobacter cloacae
  MIC: 50 µg/mL

## PRT951 (WTDACLSHPCANGSTCTTVANQFSCKCLTGFTGQKCE; listed as Homo sapiens)
Moraxella catarrhalis
  MIC: 12.5 µg/mL
E. coli BL21; E. coli BL21
  MIC: 25 µg/mL
Aeromonas hydrophila
  MIC: 12.5 µg/mL
Citrobacter diversus
  MIC: 25 µg/mL
Klebsiella pneumonia
  MIC: 25 µg/mL
Pseudomonas aeruginosa
  MIC: 25 µg/mL
E. coli DH5α
  MIC: 25 µg/mL
Serratia marcescens
  MIC: 100 µg/mL
Proteus mirabilis
  MIC: 25 µg/mL
Proteus vulgaris
  MIC: 50 µg/mL
Enterobacter cloacae
  MIC: 12.5 µg/mL

## PRT464 (DLDECRVRNLCQHACRNTEGSYQCLCPAGYRLLPSGKNCQ; listed as Homo sapiens)
Moraxella catarrhalis; [1]
  MIC against M. catarrhalis: 25 µg/mL
E. coli BL21; [1]
  MIC against E. coli BL21: 50 µg/mL
Aeromonas hydrophila; [1]
  MIC against A. hydrophila: 25 µg/mL
Citrobacter diversus; [1]
  MIC against C. diversus: 50 µg/mL
Klebsiella pneumonia; [1]
  MIC against K. pneumonia: 50 µg/mL
Pseudomonas aeruginosa; [1]
  MIC against P. aeruginosa: 12.5 µg/mL
E. coli DH5α
  MIC: 12.5 µg/mL
Serratia marcescens; [1]
  MIC against S. marcescens: 12.5 µg/mL
Proteus mirabilis; [1]
  MIC against P. mirabilis: 12.5 µg/mL
Proteus vulgaris; [1]
  MIC against P. vulgaris: 50 µg/mL
Enterobacter cloacae; [1]
  MIC against E. cloacae: 12.5 µg/mL

## PRT1258 (GRTCIETCAVNNGGCDRTCKDTATGVRCSCPVGFTLQPD; listed as Homo sapiens)
Moraxella catarrhalis; Moraxella catarrhalis, 96-well plate, 5×10^5 CFU/mL, 37° C., 10 h
  MIC against M. catarrhalis: 12.5 µg/mL
E. coli BL21; E. coli BL21, 96-well plate, 5×10^5 CFU/mL, 37° C., 10 h
  MIC against E. coli BL21: 25 µg/mL
Aeromonas hydrophila; Aeromonas hydrophila, 96-well plate, 5×10^5 CFU/mL, 37° C., 10 h
  MIC against A. hydrophila: 25 µg/mL
Citrobacter diversus; Citrobacter diversus, 96-well plate, 5×10^5 CFU/mL, 37° C., 10 h
  MIC against C. diversus: 50 µg/mL
Klebsiella pneumonia; Klebsiella pneumonia, 96-well plate, 5×10^5 CFU/mL, 37° C., 10 h
  MIC against K. pneumonia: 25 µg/mL
Pseudomonas aeruginosa; Pseudomonas aeruginosa, 96-well plate, 5×10^5 CFU/mL, 37° C., 10 h
  MIC against P. aeruginosa: 50 µg/mL
E. coli DH5α
  MIC: 12.5 µg/mL
Serratia marcescens; Serratia marcescens, 96-well plate, 5×10^5 CFU/mL, 37° C., 10 h
  MIC against S. marcescens: 12.5 µg/mL
Proteus mirabilis; Proteus mirabilis, 96-well plate, 5×10^5 CFU/mL, 37° C., 10 h
  MIC against P. mirabilis: 50 µg/mL
Proteus vulgaris; Proteus vulgaris, 96-well plate, 5×10^5 CFU/mL, 37° C., 10 h
  MIC against P. vulgaris: 25 µg/mL
Enterobacter cloacae; Enterobacter cloacae, 96-well plate, 5×10^5 CFU/mL, 37° C., 10 h
  MIC against E. cloacae: 12.5 µg/mL
